Here are results for eleven compounds from paper PMC10460844, “Real‐Time Monitoring of Multitarget Antimicrobial Mechanisms of Peptoids Using Label‐Free Imaging with Optical Diffraction Tomography” (Advanced Science, 2023).

A short description of data set [1]: Analytical reversed-phase HPLC elution (hydrophobicity). Format: physicochemical. The settings on record: Table S1; analytical RP-HPLC, SunFire C18, water/ACN + 0.1% TFA, 5 to 100% B linear over 30 min, 1 mL/min, UV 220 nm; approximate comparison of hydrophobicity. The method, boiled down:
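Analytical reversed-phase HPLC on a C18 column (4.6 × 250 mm, 5 μm) at 1 mL/min, water/acetonitrile each with 0.1% TFA. Held at 5% B for 2 min, then linear to 100% B over 30 min and held 5 min, with UV detection at 220 nm; retention time (tR) serves as hydrophobicity measure.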

For a further data set, the system named is rat erythrocytes. Description: Hemolysis assay. Format: cell-based. As to conditions: for HC10 / HC50: pH 7.4. Here is the method: The hemolysis assay was performed using rat erythrocytes in phosphate‐buffered saline (PBS), as reported by Mendes et al.^[ [45] ^] Animal studies were approved by the Laboratory Animal Resource Center of Gwangju Institute of Science and Technology. Blood was collected from a 13‐week‐old male Sprague‐Dawley rat in tubes containing 158 USP units of sodium heparin to prevent coagulation and centrifuged at 1000 rpm for 10 min at 4 °C. Plasma was removed carefully and erythrocyte pellets were washed three times with PBS (35 mM phosphate, pH 7.4, 150 mM NaCl). Next, 150 µL of a 10% erythrocyte suspension was mixed with 50 µL of serially diluted peptoids (0–100 µM) in a 96‐well black polypropylene plates (Greiner, Kremsmünster, Austria). Untreated erythrocytes and cells lysed by the addition of 1% Triton X‐100 were used as negative and positive controls, respectively, with the 1% Triton X‐100‐treated wells being accepted to represent 100% hemolysis. The reaction mixture was incubated at 37 °C for 60 min, and the plates were centrifuged at 1000 rpm for 15 min. Aliquots (150 µL) of the supernatant were transferred to fresh 96‐well plates, and the absorbance of each well was measured at 540 nm using a microplate reader. Hemolysis induced by peptoids was calculated as the percentage value of Triton X‐100 lysed cells. The percentage of hemolysis by the extracts was calculated according to the following formula: % hemolysis = [(Abs 540 nm in the peptoid solution – Abs 540 nm in PBS) / (Abs 540 nm in 1% Triton X‐100 – Abs 540 nm in PBS)] × 100. HC10 and HC50 were defined as the peptoid concentrations that caused 10% and 50% hemolysis in rat erythrocytes, respectively. H max indicates the percentage of hemolysis observed at the maximum peptoid concentration, 100 µM throughout this study.

Square brackets hold non-standard residues; d marks the D form. Peptide text beside a SMILES is read from it. Gly(N(CH2)2(3-indolyl)) = O=C(O)CNCCc1c[nH]c2ccccc12; Nspe = C[C@H](NCC(=O)O)c1ccccc1; Nphe = O=C(O)CNCc1ccccc1; Nlys = NCCCCNCC(=O)O Bounds are passed on as bounds.

Consider `C[C@@H](c1ccccc1)N(CC(=O)N(CCCCN)CC(=O)N(CC(=O)N(CC(=O)N(CCCCN)CC(=O)N(CCc1c[nH]c2ccccc12)CC(=O)N(CCc1c[nH]c2ccccc12)CC(N)=O)[C@@H](C)c1ccccc1)[C@@H](C)c1ccccc1)C(=O)CN(C(=O)CN(CCCCN)C(=O)CN(CCc1c[nH]c2ccccc12)C(=O)CN(CCc1c[nH]c2ccccc12)C(=O)CNCCCCN)[C@@H](C)c1ccccc1` [peptoid 18] (H-[Nlys][Gly(N(CH2)2(3-indolyl))][Gly(N(CH2)2(3-indolyl))][Nlys][Nspe][Nspe][Nlys][Nspe][Nspe][Nlys][Gly(N(CH2)2(3-indolyl))][Gly(N(CH2)2(3-indolyl))]-NH2), for which the HPLC elution in data set [1] is listed as 53.8 % MeCN. Also, in the data set with rat erythrocytes, the “Hmax (100 µM)” value is reported as 103.5±4.3%, the HC10 turned out to be 14.3 µM and the HC50 amounted to 37.8 µM.

Turning to `C[C@@H](c1ccccc1)N(CC(N)=O)C(=O)CN(CCCCN)C(=O)CN(CCCCN)C(=O)CN(C(=O)CN(C(=O)CN(CCCCN)C(=O)CN(C(=O)CN(C(=O)CN(CCCCN)C(=O)CN(Cc1ccccc1)C(=O)CN(Cc1ccccc1)C(=O)CNCCCCN)[C@@H](C)c1ccccc1)[C@@H](C)c1ccccc1)[C@@H](C)c1ccccc1)[C@@H](C)c1ccccc1` [peptoid 47], in data set [1], the HPLC elution is 47.8 % MeCN. Further, in the data set on rat erythrocytes, the “Hmax (100 µM)” value is listed as 4.8±0.2%, the HC10 is reported as over 100 µM and the 50% haemolytic concentration (HC50) is recorded as over 100 µM.

On to `C[C@@H](c1ccccc1)N(CC(=O)N(CCCCN)CC(=O)N(CC(=O)N(CC(=O)N(CCCCN)CC(=O)N(CCc1c[nH]c2ccccc12)CC(=O)N(CCc1c[nH]c2ccccc12)CC(N)=O)[C@@H](C)c1ccccc1)[C@@H](C)c1ccccc1)C(=O)CN(CCCCN)C(=O)CN(CCCCN)C(=O)CN(C(=O)CN(C(=O)CNCCCCN)[C@@H](C)c1ccccc1)[C@@H](C)c1ccccc1` [peptoid 30] (H-[Nlys][Nspe][Nspe][Nlys][Nlys][Nspe][Nlys][Nspe][Nspe][Nlys][Gly(N(CH2)2(3-indolyl))][Gly(N(CH2)2(3-indolyl))]-NH2), for which the HPLC elution in data set [1] came out at 48.8 % MeCN. Moreover, in the data set with rat erythrocytes, the “Hmax (100 µM)” value was determined as 8.4±0.5%, the HC10 was over 100 µM and the HC50 is reported as over 100 µM.

`C[C@@H](c1ccccc1)N(CC(=O)N(CCCCN)CC(=O)N(CC(=O)N(CC(=O)N(CCCCN)CC(=O)N(CC(=O)N(CC(=O)N(CCCCN)CC(=O)N(CC(=O)N(CC(N)=O)Cc1ccccc1)Cc1ccccc1)[C@@H](C)c1ccccc1)[C@@H](C)c1ccccc1)[C@@H](C)c1ccccc1)[C@@H](C)c1ccccc1)C(=O)CN(C(=O)CNCCCCN)[C@@H](C)c1ccccc1` [peptoid 44] (H-[Nlys][Nspe][Nspe][Nlys][Nspe][Nspe][Nlys][Nspe][Nspe][Nlys][Nphe][Nphe]-NH2): in data set [1], the HPLC elution turned out to be 53.1 % MeCN. Besides, in the data set with rat erythrocytes, the “Hmax (100 µM)” value was found to be 97.9±3.7%, the HC10 stood at 6.3 µM and the concentration for 50% haemolysis (HC50) stood at 28.6 µM.

As to `C[C@@H](c1ccccc1)N(CC(=O)N(CCc1c[nH]c2ccccc12)CC(N)=O)C(=O)CN(CCCCN)C(=O)CN(C(=O)CN(C(=O)CN(CCCCN)C(=O)CN(C(=O)CN(C(=O)CN(CCCCN)C(=O)CN(C(=O)CN(C(=O)CNCCCCN)[C@@H](C)c1ccccc1)[C@@H](C)c1ccccc1)[C@@H](C)c1ccccc1)[C@@H](C)c1ccccc1)[C@@H](C)c1ccccc1)[C@@H](C)c1ccccc1` [peptoid 7] (H-[Nlys][Nspe][Nspe][Nlys][Nspe][Nspe][Nlys][Nspe][Nspe][Nlys][Nspe][Gly(N(CH2)2(3-indolyl))]-NH2), the HPLC elution in data set [1] was 54.1 % MeCN. In the data set on rat erythrocytes, the “Hmax (100 µM)” value is given as 94.1±4.3%, the HC10 was found to be 7.8 µM and the 50% haemolytic concentration (HC50) amounted to 23.8 µM.

Take `C[C@@H](c1ccccc1)N(CC(=O)N(CCCCN)CC(=O)N(CCc1c[nH]c2ccccc12)CC(=O)N(CCc1c[nH]c2ccccc12)CC(N)=O)C(=O)CN(CCCCN)C(=O)CN(CCCCN)C(=O)CN(Cc1ccccc1)C(=O)CN(Cc1ccccc1)C(=O)CN(CCCCN)C(=O)CN(C(=O)CN(C(=O)CNCCCCN)[C@@H](C)c1ccccc1)[C@@H](C)c1ccccc1` [peptoid 40] (H-[Nlys][Nspe][Nspe][Nlys][Nphe][Nphe][Nlys][Nlys][Nspe][Nlys][Gly(N(CH2)2(3-indolyl))][Gly(N(CH2)2(3-indolyl))]-NH2): the HPLC elution in data set [1] amounted to 47.5 % MeCN. In the data set on rat erythrocytes, the “Hmax (100 µM)” value was determined as 8.9±0.2%, the HC10 is reported as over 100 µM and the concentration for 50% haemolysis (HC50) is recorded as over 100 µM.

Regarding `C[C@@H](c1ccccc1)N(CC(N)=O)C(=O)CN(C(=O)CN(CCCCN)C(=O)CN(C(=O)CN(C(=O)CN(CCCCN)C(=O)CN(CCc1c[nH]c2ccccc12)C(=O)CN(C(=O)CN(CCCCN)C(=O)CN(C(=O)CN(CCCCN)C(=O)CNCCCCN)[C@@H](C)c1ccccc1)[C@@H](C)c1ccccc1)[C@@H](C)c1ccccc1)[C@@H](C)c1ccccc1)[C@@H](C)c1ccccc1` [peptoid 27], the HPLC elution in data set [1] stood at 50.7 % MeCN. For the same compound, in the data set with rat erythrocytes, the “Hmax (100 µM)” value is listed as 5.9±0.2%, the HC10 is over 100 µM and the HC50 was over 100 µM.

For the compound `C[C@@H](c1ccccc1)N(CC(N)=O)C(=O)CN(C(=O)CN(CCCCN)C(=O)CN(C(=O)CN(C(=O)CN(CCCCN)C(=O)CN(C(=O)CN(C(=O)CN(CCCCN)C(=O)CN(C(=O)CN(C(=O)CN(CCCCN)C(=O)CNCCc1c[nH]c2ccccc12)[C@@H](C)c1ccccc1)[C@@H](C)c1ccccc1)[C@@H](C)c1ccccc1)[C@@H](C)c1ccccc1)[C@@H](C)c1ccccc1)[C@@H](C)c1ccccc1)[C@@H](C)c1ccccc1` [peptoid 3], the HPLC elution in data set [1] is recorded as 55.8 % MeCN. In the data set with rat erythrocytes, the “Hmax (100 µM)” value stood at 100.5±9.9%, the HC10 stood at 6.3 µM and the HC50 turned out to be 13.9 µM.

Consider `C[C@@H](c1ccccc1)N(CC(N)=O)C(=O)CN(C(=O)CN(CCCCN)C(=O)CN(C(=O)CN(C(=O)CN(CCCCN)C(=O)CN(C(=O)CN(CCCCN)C(=O)CN(CCCCN)C(=O)CN(CCc1c[nH]c2ccccc12)C(=O)CN(CCc1c[nH]c2ccccc12)C(=O)CNCCCCN)[C@@H](C)c1ccccc1)[C@@H](C)c1ccccc1)[C@@H](C)c1ccccc1)[C@@H](C)c1ccccc1` [peptoid 34], for which the HPLC elution in data set [1] is listed as 48.6 % MeCN. In the data set on rat erythrocytes, the “Hmax (100 µM)” value is reported as 8.5±1.1%, the HC10 is recorded as over 100 µM and the HC50 is reported as over 100 µM.

Turning to `C[C@@H](c1ccccc1)N(CC(N)=O)C(=O)CN(C(=O)CN(CCCCN)C(=O)CN(CCc1c[nH]c2ccccc12)C(=O)CN(C(=O)CN(CCCCN)C(=O)CN(C(=O)CN(C(=O)CN(CCCCN)C(=O)CN(C(=O)CN(C(=O)CNCCCCN)[C@@H](C)c1ccccc1)[C@@H](C)c1ccccc1)[C@@H](C)c1ccccc1)[C@@H](C)c1ccccc1)[C@@H](C)c1ccccc1)[C@@H](C)c1ccccc1` [peptoid 8], the HPLC elution in data set [1] worked out at 54.5 % MeCN. Moreover, in the data set with rat erythrocytes, the “Hmax (100 µM)” value worked out at 105.1±2.2%, the HC10 was determined as 12.8 µM and the concentration for 50% haemolysis (HC50) amounted to 28.4 µM.

As for `C[C@@H](c1ccccc1)N(CC(N)=O)C(=O)CN(C(=O)CN(CCCCN)C(=O)CN(C(=O)CN(C(=O)CN(CCCCN)C(=O)CN(CCc1c[nH]c2ccccc12)C(=O)CN(CCCCN)C(=O)CN(CCCCN)C(=O)CN(C(=O)CN(C(=O)CNCCCCN)[C@@H](C)c1ccccc1)[C@@H](C)c1ccccc1)[C@@H](C)c1ccccc1)[C@@H](C)c1ccccc1)[C@@H](C)c1ccccc1` [peptoid 26], the HPLC elution in data set [1] is 49.5 % MeCN. For the same compound, in the data set with rat erythrocytes, the “Hmax (100 µM)” value came out at 0.7±0.1%, the HC10 is over 100 µM and the HC50 is on record as over 100 µM.
